Reference: US20230348453A1, “HALOGENATED-HETEROARYL AND OTHER HETEROCYCLIC KINASE INHIBITORS, AND USES THEREOF” (iOmx Therapeutics AG, priority 2020, published 2023)
pIC50: −log10 of the molar value. Where two headings read alike, the source gives them in different places. Values belong to the compound of their own block, whether it stands above or below them.

Experiments:
[1] = mouse, in vivo, po, 30 mg/kg
[2] = molecular target: T1, SIK3 (Homo sapiens (Human), UniProt Q9Y2K2); assay: SIK3 kinase inhibition (IC50)
[3] = molecular target: SIK2 (Homo sapiens (Human), UniProt Q9H0K1); assay: SIK2 kinase inhibition (IC50); settings: for IC50: read-out: Kinase: IC50 (nM) SIK2
[4] = in vitro; settings: human, microsomes
[5] = Human plasma-protein binding; settings: for recovery at 4 h: human, plasma
[6] = Human hepatocyte stability; type: in vitro ADME; settings: human, hepatocytes; for half-life: read-out: Human hepatocyte stability, Half-life; for microsomal CLint: read-out: Human hepatocyte stability, Intrinsic clearance
[7] = molecular target: MDR1 (P-gp) (Homo sapiens (Human), UniProt P08183); assay: MDR1-MDCK effective efflux assay; settings: dog; for Papp: MDCK-MDR1; for efflux ratio: Table 5.1B
[8] = Screening PK in mice after 30 mg/kg po; settings: for Cmax at 2 h / concentration at 6 h: mouse, plasma, po, 30 mg/kg
[9] = in vitro; settings: mouse, microsomes
[10] = Mouse hepatocyte stability; type: in vitro ADME; settings: hepatocytes; for microsomal CLint: read-out: Mouse hepatocyte stability, Intrinsic clearance
[11] = Murine plasma protein binding; settings: for recovery at 4 h: mouse, plasma
[12] = MDCK wild type permeability/efflux; settings: dog
[13] = molecular target: SRC (GST-HIS-tag) (Homo sapiens (Human), UniProt P12931); type: biochemical
[14] = molecular target: T1, SIK3; settings: read-out: SIK3 IC50
[15] = test system: HDAC4 phosphorylation in PANC-1 cells; assay: HDAC4 phosphorylation (Meso Scale Discovery assay); settings: 10 ng/mL rHuTNF, 3 h (Table 9C)
[16] = test system: NFKB activity in PANC-1 cells; assay: TNF-induced NFKB activity (NFKB-dependent luciferase reporter); settings: 10 ng/ml rHuTNF, PANC-1 reporter cells (Table 9C)
[17] = test system: MC38 murine tumour cell line; assay: TNF-sensitised cell viability assay (CellTiter-Glo); settings: read-out: MC38 IC50 (nM at 100 ng/mL TNF); 100 ng/mL TNF, 72 h
[18] = microsomes
[19] = microsomes; remark: listed apart in the source
[20] = MDCK-MDR1, MDCK-MDR1 cells, Mean Efflux Ratio (MDR1)
[21] = MDCK-MDR1, P-gP driven efflux ratio (MDR1/wt)
[22] = Free plasma concentration after 6 h (nM), mice, 30 mg/kg po, 6 h
[23] = Plasma concentration after 6 h (nM), mice, 30 mg/kg po, 6 h

SMILES: Cc1nc(Nc2ncc(C(=O)Nc3c(Cl)csc3Cl)s2)cc(N2CCN(CCO)CC2)n1 [Compound D7]
Free concentration (nM) at 2 hours [1]: 43 nM
Free concentration (nM) at 6 hours [1]: 5 nM
Free concentration (nM) at 12 hours [1]: 1.10 nM

pIC50 [2]: 7.30 to 7.70
IC50 [3]: < 20 nM
SMILES: Cc1nc(Nc2ncc(C(=O)Nc3c(Cl)csc3F)s2)cc(N2CCN(C)CC2)n1 [Compound E15, N-(4-chloro-2-fluorothiophen-3-yl)-2-((2-methyl-6-(4-methylpiperazin-1-yl)pyrimidin-4-yl)amino)thiazole-5-carboxamide]

pIC50 [2]: 7.30 to 7.70
half-life [4]: 19 min
microsomal CLint [4]: 72 µL/min/mg
IC50 [3]: < 10 nM
Human plasma-protein binding, Percentage unbound (%) ([5]; Table 5.1A): 3%
recovery at 4 h [5]: 77%
half-life [6]: 26 min
microsomal CLint [6]: 55 µL/min/mg
Papp [7]: 3 ×10⁻⁶ cm/s
efflux ratio [7, 20]: 61
efflux ratio [7, 21]: 24
fold improvement of free serum concentration over C7 ([8]; mice, 30 mg/kg po, 6 h): 2 fold
fold improvement of total serum concentration over C7 ([8]; mice, 30 mg/kg po, 6 h): 3.1 fold
Cmax at 2 h [8]: 487 ng/mL
concentration at 6 h [8, 22]: 7.7 nM
concentration at 6 h [8, 23]: 219 nM
half-life [9]: 21 min
microsomal CLint [9]: 66 µL/min/mg
half-life [10]: 56 min
microsomal CLint [10]: 25 µL/min/mg
Murine plasma protein binding, Percentage unbound (%) ([11]; Table 5.1A): 1%
recovery at 4 h [11]: 98%
Papp [12]: 8 ×10⁻⁶ cm/s
efflux ratio [12]: 2.6
SMILES: Cc1nc(Nc2ncc(C(=O)Nc3c(CF)csc3Cl)s2)cc(N2CCCN(C)CC2)n1 [Compound E11, N-(2-chloro-4-(fluoromethyl)thiophen-3-yl)-2-((2-methyl-6-(4-methyl-1,4-diazepan-1-yl)pyrimidin-4-yl)amino)thiazole-5-carboxamide]

SMILES: Cc1nc(NCCO)cc(Nc2ncc(C(=O)Nc3c(Cl)ccnc3C)s2)n1 [Compound C11, N-(4-chloro-2-methylpyridin-3-yl)-2-((6-((2-hydroxyethyl)amino)-2-methylpyrimidin-4-yl)amino)thiazole-5-carboxamide]
pIC50 [13]: > 8.82
pIC50 [14]: 5.82

SMILES: Cc1nc(Nc2ncc(C(=O)Nc3c(Br)ccnc3C)s2)cc(N2CCN(CCO)CC2)n1 [Compound C3, N-(4-bromo-2-methylpyridin-3-yl)-2-((6-(4-(2-hydroxyethyl)piperazin-1-yl)-2-methylpyrimidin-4-yl)amino)thiazole-5-carboxamide]
pIC50 [14]: 5.56

IC50 ([2]; read-out: Kinase: IC50 (nM) SIK3): < 20 nM
IC50 [3]: < 10 nM
SMILES: Cc1nc(Nc2ncc(C(=O)Nc3c(C(F)F)csc3Cl)s2)cc(N2CCN(C)CC2)n1 [Compound E13, N-(2-chloro-4-(difluoromethyl)thiophen-3-yl)-2-((2-methyl-6-(4-methylpiperazin-1-yl)pyrimidin-4-yl)amino)thiazole-5-carboxamide]

SMILES: Cc1nc(Nc2ncc(C(=O)Nc3c(C)cncc3C)s2)cc(N2CCN(CCO)CC2)n1 [Compound C5, N-(3,5-dimethylpyridin-4-yl)-2-((6-(4-(2-hydroxyethyl)piperazin-1-yl)-2-methylpyrimidin-4-yl)amino)thiazole-5-carboxamide]
pIC50 [13]: > 8.82
pIC50 [14]: 6.47

pIC50 [2]: 7.00 to 7.30
IC50 [3]: < 20 nM
SMILES: Cc1nc(Nc2ncc(C(=O)Nc3c(CF)csc3Cl)s2)cc(N2CCNC(=O)C2)n1 [Compound E12, N-(2-chloro-4-(fluoromethyl)thiophen-3-yl)-2-((2-methyl-6-(3-oxopiperazin-1-yl)pyrimidin-4-yl)amino)thiazole-5-carboxamide]

SMILES: CC(=O)N1CCN(c2cc(Nc3ncc(C(=O)Nc4c(C)csc4Cl)s3)nc(C)n2)CC1 [Compound D8]
pIC50 [14]: ~6.82

SMILES: Cc1nc(Nc2ncc(C(=O)Nc3c(C)csc3Cl)s2)cc(N2CCN(C)CC2)n1 [Compound D9]
Inhibition of HDAC4 phosphorylation [15]: +
Inhibition of NFKB activity [16]: +
pIC50 [14]: ~7.22
Free concentration (nM) at 2 hours [1]: 44 nM
Free concentration (nM) at 6 hours [1]: 8 nM
Free concentration (nM) at 12 hours [1]: 2.71 nM

SMILES: Cc1nc(Nc2ncc(C(=O)Nc3cccnc3C)s2)cc(N2CCN(CCO)CC2)n1 [Compound C6, 2-((6-(4-(2-hydroxyethyl)piperazin-1-yl)-2-methylpyrimidin-4-yl)amino)-N-(2-methylpyridin-3-yl)thiazole-5-carboxamide]
pIC50 [13]: > 8.82
pIC50 [14]: 6.01

pIC50 [2]: 7.00 to 7.30
IC50 [3]: < 10 nM
SMILES: Cc1nc(Nc2ncc(C(=O)Nc3c(Cl)csc3F)s2)cc(N2CCN(CCO)CC2)n1 [Compound E2, N-(4-chloro-2-fluorothiophen-3-yl)-2-((6-(4-(2-hydroxyethyl)piperazin-1-yl)-2-methylpyrimidin-4-yl)amino)thiazole-5-carboxamide]

SMILES: Cc1nc(Nc2ncc(C(=O)Nc3c(Cl)csc3C)s2)cc(N2CCN(CCO)CC2)n1 [Compound D1]
IC50 [17]: < 200 nM
Free concentration (nM) at 2 hours [1]: 80 nM
Free concentration (nM) at 6 hours [1]: 4 nM
Free concentration (nM) at 12 hours [1]: 2.14 nM

pIC50 [2]: 7.00 to 7.30
pIC50 [3]: 7.30 to 7.70
SMILES: Cc1nc(Nc2ncc(C(=O)Nc3c(C(F)(F)F)csc3Cl)s2)cc(N2CCN(CCO)CC2)n1 [Compound E5, N-(2-chloro-4-(trifluoromethyl)thiophen-3-yl)-2-((6-(4-(2-hydroxyethyl)piperazin-1-yl)-2-methylpyrimidin-4-yl)amino)thiazole-5-carboxamide]

SMILES: Cc1nc(Nc2ncc(C(=O)Nc3c(C)cncc3Cl)s2)cc(N2CCN(CCO)CC2)n1 [Compound C4, N-(3-chloro-5-methylpyridin-4-yl)-2-((6-(4-(2-hydroxyethyl)piperazin-1-yl)-2-methylpyrimidin-4-yl)amino)thiazole-5-carboxamide]
pIC50 [13]: > 8.82
Human liver microsomal stability, Intrinsic clearance [18]: 115 µL/min/mg
half-life [4]: 12 min
Human plasma-protein binding, Percentage unbound (%) ([5]; Table 5A): 2%
pIC50 [14]: 6.17
half-life [9]: 37 min
Mouse liver microsomal stability, Intrinsic clearance (L/min/mg) [19]: 38 µL/min/mg
Murine plasma protein binding, Percentage unbound (%) ([11]; Table 5A): 14%

SMILES: Cc1nc(Nc2ncc(C(=O)Nc3c(C)ccnc3C)s2)cc(N2CCN(CCO)CC2)n1 [Compound C1, N-(2,4-dimethylpyridin-3-yl)-2-((6-(4-(2-hydroxyethyl)piperazin-1-yl)-2-methylpyrimidin-4-yl)amino)thiazole-5-carboxamide]
pIC50 [13]: > 8.82
pIC50 [14]: 6.06

pIC50 [2]: 7.30 to 7.70
half-life [4]: 16 min
microsomal CLint [4]: 86 µL/min/mg
IC50 [3]: < 10 nM
Human plasma-protein binding, Percentage unbound (%) ([5]; Table 5.1A): 2%
recovery at 4 h [5]: 76%
half-life [6]: 34 min
microsomal CLint [6]: 41 µL/min/mg
Papp [7]: 2 ×10⁻⁶ cm/s
efflux ratio [7, 20]: 53
efflux ratio [7, 21]: 12
Cmax at 2 h [8]: 889 ng/mL
concentration at 6 h [8, 22]: 3.7 nM
concentration at 6 h [8, 23]: 73 nM
half-life [9]: 18 min
microsomal CLint [9]: 76 µL/min/mg
half-life [10]: 63 min
microsomal CLint [10]: 22 µL/min/mg
Murine plasma protein binding, Percentage unbound (%) ([11]; Table 5.1A): 4%
recovery at 4 h [11]: 89%
Papp [12]: 7 ×10⁻⁶ cm/s
efflux ratio [12]: 4.3
SMILES: Cc1nc(Nc2ncc(C(=O)Nc3c(CF)csc3Cl)s2)cc(N2CCN(CCO)CC2)n1 [Compound E3, N-(2-chloro-4-(fluoromethyl)thiophen-3-yl)-2-((6-(4-(2-hydroxyethyl)piperazin-1-yl)-2-methylpyrimidin-4-yl)amino)thiazole-5-carboxamide]

SMILES: Cc1nc(Nc2ncc(C(=O)Nc3c(CF)csc3Cl)s2)cc(N2CCN(C)C(C)C2)n1 (single isomer, unassigned) [Compound E10-Ent-II, N-(2-chloro-4-(fluoromethyl)thiophen-3-yl)-2-((6-(3,4-dimethylpiperazin-1-yl)-2-methylpyrimidin-4-yl)amino)thiazole-5-carboxamide]
IC50 against SIK3 relative to IC50 of E10-Ent-I ([2]; separated enantiomers): approximately half
